Assay results reported in patent publication US11795169B2, “MAP4K4 inhibitors” (IMPERIAL COLLEGE INNOVATIONS LIMITED, priority 2017, dated 2023).
Where a name gives a salt, the structure may show the parent alone.

Molecular target: human MAP4K4 kinase domain (Homo sapiens (Human), UniProt O95819)
Assay: MAP4K4 kinase activity, CisBio HTRF Transcreener ADP assay
Type: biochemical
Details: ATP at Km (10 μM), 0.5 nM kinase domain, 2 h; read-out: MAP4K4
Description: Compounds of the present invention were screened for their inhibitory activity against MAP4K4, versus selected off-target hits found with early members of this chemical series. MAP4K4 kinase activity was monitored using the CisBio HTRF Transcreener ADP assay, acompetitive immunoassay with a reproducible Z′>0.6. In the detection step, endogenous ADP and d2-labeled ADP compete for binding an anti-ADP monoclonal antibody labelled with Eu^3+ cryptate. A ratiometric fluorescent read-out is used at 665 and 620 nm. […] Assays were run in Greiner low volume plates with a final reaction volume of 10 μl. The MAP4K4 inhibition data are provided in Table 33 below for selected compounds of the present invention. The data has been categorised based on the IC50 value of the compound as “A”, “B” or “C”.

human MAP4K4 kinase domain, sequence (O95819 25-289): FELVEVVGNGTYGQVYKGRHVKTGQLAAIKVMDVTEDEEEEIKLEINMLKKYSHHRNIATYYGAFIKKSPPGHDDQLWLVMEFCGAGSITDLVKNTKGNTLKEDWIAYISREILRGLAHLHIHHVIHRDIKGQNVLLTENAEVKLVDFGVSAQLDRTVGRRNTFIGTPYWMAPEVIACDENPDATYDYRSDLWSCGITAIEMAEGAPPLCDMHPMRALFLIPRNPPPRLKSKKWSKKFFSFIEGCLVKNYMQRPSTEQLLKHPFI

Row | SMILES | IC50
1 | O=C(Nc1ccc(-c2cn(-c3ccccc3)c3nc[nH]c(=O)c23)cc1)N1CCC(O)C1 (racemic) [compound 39] | ≤ 100 nM
2 | O=C(O)c1ccc(-n2cc(-c3ccccc3)c3c(=O)[nH]cnc32)cc1 [Ex-1, 4-(4-Oxo-5-phenyl-3,4-dihydro-pyrrolo[2,3-d]pyrimidin-7-yl)-benzoic acid] | 100 to 1000 nM
3 | NC(=O)c1cccc(-n2cc(-c3ccccc3)c3c(=O)[nH]cnc32)c1 [Ex-2] | ≤ 100 nM
4 | CS(=O)(=O)c1ccc(-n2cc(-c3ccccc3)c3c(=O)[nH]cnc32)cc1 [Ex-3] | > 1000 nM
5 | O=c1[nH]cnc2c1c(-c1ccccc1)cn2-c1ccc(Cn2ccnc2)cc1 [Ex-4] | > 1000 nM
6 | CNC(=O)c1ccc(-n2cc(-c3ccccc3)c3c(=O)[nH]cnc32)cc1 [Ex-5, N-Methyl-4-(4-oxo-5-phenyl-3,4-dihydro-pyrrolo[2,3-d]pyrimidin-7-yl)-benzamide] | > 1000 nM
7 | NC(=O)c1ccc(-n2cc(-c3ccccc3)c3c(=O)[nH]cnc32)cc1 [Ex-6] | 100 to 1000 nM
8 | CC(C)(O)COc1ccc(-c2cn(-c3ccccc3)c3nc[nH]c(=O)c23)cc1C#N [Ex-7, 2-(2-Hydroxy-2-methylpropoxy)-5-(4-oxo-7-phenyl-4,7-dihydro-3H-pyrrolo[2,3-d]pyrimidin-5-yl)benzonitrile] | ≤ 100 nM
9 | N#Cc1cccc(-c2cn(-c3ccccc3)c3nc[nH]c(=O)c23)c1 [Ex-8] | ≤ 100 nM
10 | CC(=O)Nc1ccc(-c2cn(-c3ccccc3)c3nc[nH]c(=O)c23)cc1 [Ex-9] | ≤ 100 nM
11 | CCOC(=O)Cc1ccc(-c2cn(-c3ccccc3)c3nc[nH]c(=O)c23)cc1 [Ex-10, [4-(4-oxo-7-phenyl-4,7-dihydro-3H-pyrrolo[2,3-d]pyrimidin-5-yl)-phenyl]-acetic acid ethyl ester] | ≤ 100 nM
12 | N#Cc1ccc(-c2cn(-c3ccccc3)c3nc[nH]c(=O)c23)cc1 [Ex-11, 4-(4-oxo-7-phenyl-4,7-dihydro-3H-pyrrolo[2,3-d]pyrimidin-5-yl)-benzonitrile] | ≤ 100 nM
13 | CC(=O)Nc1cccc(-c2cn(-c3ccccc3)c3nc[nH]c(=O)c23)c1 [Ex-12] | 100 to 1000 nM
14 | O=c1[nH]cnc2c1c(-c1ccc(Cn3ccnc3)cc1)cn2-c1ccccc1 [Ex-13] | ≤ 100 nM
15 | O=C(CO)Nc1ccc(-c2cn(-c3ccccc3)c3nc[nH]c(=O)c23)cc1 [Ex-14] | ≤ 100 nM
16 | CN(C)CCOc1ccc(-c2cn(-c3ccccc3)c3nc[nH]c(=O)c23)cc1 [Ex-15] | ≤ 100 nM
17 | O=C(CN1CCOCC1)Nc1ccc(-c2cn(-c3ccccc3)c3nc[nH]c(=O)c23)cc1 [Ex-16] | ≤ 100 nM
18 | CN1CCN(CC(=O)Nc2ccc(-c3cn(-c4ccccc4)c4nc[nH]c(=O)c34)cc2)CC1 [Ex-17] | ≤ 100 nM
19 | CN1CCN(CC(=O)Nc2ccc(-c3cn(-c4cccc(F)c4)c4nc[nH]c(=O)c34)cc2)CC1 [Ex-18] | ≤ 100 nM
20 | O=C1CCCN1c1ccc(-c2cn(-c3ccccc3)c3nc[nH]c(=O)c23)cc1 [Ex-19] | ≤ 100 nM
21 | O=C1CCCCN1c1ccc(-c2cn(-c3ccccc3)c3nc[nH]c(=O)c23)cc1 [Ex-20] | 100 to 1000 nM
22 | CN(C)CCNC(=O)c1cccc(-c2cn(-c3ccccc3)c3nc[nH]c(=O)c23)c1 [Ex-21] | > 1000 nM
23 | COc1ccc(-c2cn(-c3ccccc3)c3nc[nH]c(=O)c23)cc1 [Ex-23] | ≤ 100 nM
24 | CN(C)CC(=O)Nc1cccc(-c2cn(-c3ccccc3)c3nc[nH]c(=O)c23)c1 [Ex-24] | > 1000 nM

Row | SMILES | IC50
25 | O=C1CCCN1c1ccc(-c2cn(-c3cccc(F)c3)c3nc[nH]c(=O)c23)cc1 [Ex-25] | ≤ 100 nM
26 | CN(C)CCCOc1ccc(-c2cn(-c3ccccc3)c3nc[nH]c(=O)c23)cc1 [Ex-26] | ≤ 100 nM
27 | COC(COc1ccc(-c2cn(-c3ccccc3)c3nc[nH]c(=O)c23)cc1)CN1CCOCC1 (centres unmarked) [Ex-28] | ≤ 100 nM
28 | CN1CCN(c2ccc(-c3cn(-c4ccccc4)c4nc[nH]c(=O)c34)cc2)C1=O [Ex-29] | ≤ 100 nM
29 | O=c1[nH]cnc2c1c(-c1ccccc1Cl)cn2-c1ccccc1 [Ex-30] | 100 to 1000 nM
30 | CN(C)Cc1cccc(-c2cn(-c3ccccc3)c3nc[nH]c(=O)c23)c1 [Ex-31] | > 1000 nM
31 | CN(Cc1cccc(-c2cn(-c3ccccc3)c3nc[nH]c(=O)c23)c1)C(=O)OC(C)(C)C [Ex-32] | 100 to 1000 nM
32 | CN(C)CCN1CCN(c2ccc(-c3cn(-c4ccccc4)c4nc[nH]c(=O)c34)cc2)C1=O [Ex-33] | ≤ 100 nM
33 | O=c1[nH]cnc2c1c(-c1c(F)cccc1F)cn2-c1ccccc1 [Ex-34] | 100 to 1000 nM
34 | CN1CCN(CCCOc2ccc(-c3cn(-c4ccccc4)c4nc[nH]c(=O)c34)cc2)CC1 [Ex-35] | ≤ 100 nM
35 | O=c1[nH]cnc2c1c(-c1ccc(OCCCO)cc1)cn2-c1ccccc1 [Ex-36] | ≤ 100 nM
36 | CC(C)(O)CN1CCN(c2ccc(-c3cn(-c4ccccc4)c4nc[nH]c(=O)c34)cc2)C1=O [Ex-37] | ≤ 100 nM
37 | O=C1COCCN1CC(O)COc1ccc(-c2cn(-c3ccccc3)c3nc[nH]c(=O)c23)cc1 (centres unmarked) [Ex-38] | ≤ 100 nM
38 | COc1cccc(-n2cc(-c3ccc(OCC(O)CN4CCOCC4)cc3)c3c(=O)[nH]cnc32)c1 (centres unmarked) [Ex-41, 5-[4-(2-Hydroxy-3-morpholin-4-yl-propoxy)-phenyl]-7-(3-methoxy-phenyl)-3,7-dihydro-pyrrolo[2,3-d]pyrimidin-4-one] | ≤ 100 nM
39 | O=c1[nH]cnc2c1c(-c1ccc(OCC(O)CN3CCOCC3)cc1)cn2-c1ccccc1 (centres unmarked) [Ex-42] | ≤ 100 nM
40 | O=c1[nH]cnc2c1c(-c1ccc(OCC(O)CN3CCOCC3)cc1)cn2-c1cccc(F)c1 (centres unmarked) [Ex-43] | ≤ 100 nM
41 | O=C(NCCO)c1cccc(-c2cn(-c3ccccc3)c3nc[nH]c(=O)c23)c1 [Ex-44] | > 1000 nM
42 | O=c1[nH]cnc2c1c(-c1cccc(CO)c1)cn2-c1ccccc1 [Ex-45] | ≤ 100 nM
43 | CN(C)CC(O)COc1ccc(-c2cn(-c3ccccc3)c3nc[nH]c(=O)c23)cc1 (centres unmarked) [Ex-46] | ≤ 100 nM
44 | O=c1[nH]cnc2c1c(-c1cccc(OCCO)c1)cn2-c1ccccc1 [Ex-47] | 100 to 1000 nM
45 | CN1CCN(CC(O)COc2ccc(-c3cn(-c4ccccc4)c4nc[nH]c(=O)c34)cc2)CC1 (centres unmarked) [Ex-48] | ≤ 100 nM
46 | N#Cc1cc(-c2cn(-c3ccccc3)c3nc[nH]c(=O)c23)ccc1OCC(O)CN1CCOCC1 (centres unmarked) [Ex-49] | ≤ 100 nM
47 | CN1CCN(CC(O)COc2ccc(-c3cn(-c4ccccc4)c4nc[nH]c(=O)c34)cc2)CC1=O (centres unmarked) [Ex-50] | ≤ 100 nM
48 | O=c1[nH]cnc2c1c(-c1ccc(OCC(O)CN3CCS(=O)(=O)CC3)cc1)cn2-c1ccccc1 (centres unmarked) [Ex-51] | ≤ 100 nM

Row | SMILES | IC50
49 | C[C@@H](O)COc1ccc(-c2cn(-c3ccccc3)c3nc[nH]c(=O)c23)cc1 [Ex-52] | ≤ 100 nM
50 | C[C@H](O)COc1ccc(-c2cn(-c3ccccc3)c3nc[nH]c(=O)c23)cc1 [Ex-53] | ≤ 100 nM
51 | O=C1N(CCO)CCN1c1ccc(-c2cn(-c3ccccc3)c3nc[nH]c(=O)c23)cc1 [Ex-55, 5-{4-[3-(2-Hydroxy-ethyl)-2-oxo-imidazolidin-1-yl]-phenyl}-7-phenyl-3,7-dihydro-pyrrolo[2,3-d]pyrimidin-4-one] | ≤ 100 nM
52 | Cc1cc(OCCO)ccc1-c1cn(-c2ccccc2)c2nc[nH]c(=O)c12 [Ex-57] | ≤ 100 nM
53 | O=c1[nH]cnc2c1c(-c1ccc(N3CCCC3)cc1)cn2-c1ccccc1 [Ex-62] | ≤ 100 nM
54 | CC(C)(C)OC(=O)NCCOc1ccc(-c2cn(-c3ccccc3)c3nc[nH]c(=O)c23)cc1 [Ex-63] | 100 to 1000 nM
55 | CC(C)(O)COc1ccc(-c2cn(-c3ccccc3)c3nc[nH]c(=O)c23)cc1 [Ex-64] | ≤ 100 nM
56 | COCCOc1ccc(-c2cn(-c3cccc(F)c3)c3nc[nH]c(=O)c23)cc1 [Ex-65] | ≤ 100 nM
57 | O=c1[nH]cnc2c1c(-c1ccccc1F)cn2-c1ccccc1 [Ex-66] | 100 to 1000 nM
58 | CN1CC(COc2ccc(-c3cn(-c4ccccc4)c4nc[nH]c(=O)c34)cc2)C1 [Ex-67] | 100 to 1000 nM
59 | O=c1[nH]cnc2c1c(-c1ccc(OCC(O)CO)cc1)cn2-c1ccccc1 (centres unmarked) [Ex-68] | ≤ 100 nM
60 | O=c1[nH]cnc2c1c(-c1ccc(OCC3(O)COC3)cc1)cn2-c1ccccc1 [Ex-69] | ≤ 100 nM
61 | O=c1[nH]cnc2c1c(-c1ccc(OCCO)cc1)cn2-c1ccccc1 [Ex-70] | ≤ 100 nM
62 | CC(=O)NCc1cccc(-c2cn(-c3ccccc3)c3nc[nH]c(=O)c23)c1 [Ex-71, N-[3-(4-Oxo-7-phenyl-4,7-dihydro-3H-pyrrolo[2,3-d]pyrimidin-5-yl)-benzyl]-acetamide] | 100 to 1000 nM
63 | NCc1ccc(-c2cn(-c3ccccc3)c3nc[nH]c(=O)c23)cc1 [Ex-74, 5-(4-Aminomethyl-phenyl)-7-phenyl-3,7-dihydro-pyrrolo[2,3-d]pyrimidin-4-one] | 100 to 1000 nM
64 | NCc1cccc(-c2cn(-c3ccccc3)c3nc[nH]c(=O)c23)c1 [Ex-75] | 100 to 1000 nM
65 | NCC(=O)Nc1ccc(-c2cn(-c3ccccc3)c3nc[nH]c(=O)c23)cc1 [Ex-76] | ≤ 100 nM
66 | CNCC(=O)Nc1ccc(-c2cn(-c3ccccc3)c3nc[nH]c(=O)c23)cc1 [Ex-77] | ≤ 100 nM
67 | NCCOc1ccc(-c2cn(-c3ccccc3)c3nc[nH]c(=O)c23)cc1 [Ex-78] | ≤ 100 nM
68 | CNCc1cccc(-c2cn(-c3ccccc3)c3nc[nH]c(=O)c23)c1 [Ex-79] | > 1000 nM
69 | O=c1[nH]cnc2c1c(-c1ccc(OCC3CNC3)cc1)cn2-c1ccccc1 [Ex-80, 5-[4-(Azetidin-3-ylmethoxy)-phenyl]-7-phenyl-3,7-dihydro-pyrrolo[2,3-d]pyrimidin-4-one-formate salt] | ≤ 100 nM
70 | CNCCC(=O)Nc1ccc(-c2cn(-c3ccccc3)c3nc[nH]c(=O)c23)cc1 [Ex-81] | ≤ 100 nM
71 | O=C(O)Cc1ccc(-c2cn(-c3ccccc3)c3nc[nH]c(=O)c23)cc1 [Ex-82, [4-(4-Oxo-7-phenyl-4,7-dihydro-3H-pyrrolo[2,3-d]pyrimidin-5-yl)-phenyl]-acetic acid] | ≤ 100 nM
